# According to the supplement of paper PMC4862054:
# Values joined by “and” are separate entries in the source; they are usually repeats but may differ in a detail not shown here. Identical values can stand only once.
# Columns and labels:
# [1] = tested on: HDQ-P1; conditions: 72 h
# Outline: (§1)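 Per-plate normalisation used 0.1 % DMSO and a positive kill control. Breast cancer cell lines (20 µl suspension) were seeded into 384-well plates containing compound at 5 concentrations in 10-fold steps across a compound-specific 10,000-fold range, incubated for 72 h, and read first for CellTox Green fluorescence (485/520 nm), then for CellTiter-Glo luminescence. EC50 was fitted from the dose-response curves and censored at the top concentration.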
# [2] = tested on: CAL-120; conditions: 72 h
# Outline: as §1
# [3] = tested on: SK-BR-3; conditions: 72 h
# Outline: as §1
# [4] = tested on: MCF-10A; conditions: 72 h
# Outline: as §1
# [5] = tested on: Hs578T; conditions: 72 h
# Outline: as §1
# [6] = tested on: CAL-51; conditions: 72 h
# Outline: as §1
# [7] = tested on: MDA-MB-436; conditions: 72 h
# Outline: as §1
# [8] = tested on: MDA-MB-231; conditions: 72 h
# Outline: as §1
# [9] = tested on: DU-4475; conditions: 72 h
# Outline: as §1
# [10] = tested on: CAL-148; conditions: 72 h
# Outline: as §1
# [11] = tested on: BT-549; conditions: 72 h
# Outline: as §1
# [12] = tested on: BT-474; conditions: 72 h
# Outline: as §1
# [13] = tested on: HCC1599; test: drug sensitivity score (DSS), CellTiter-Blue viability (DSS (AUC-based score)); higher = stronger viability inhibition; extreme values may be limits of the assay; conditions: incubation time: 72 h
# Experimental: (§2)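 DSRT with the CellTiter-Blue (resazurin reduction) viability readout, fluorescence 560/590 nm, 72 h incubation. Plates were normalised to DMSO and benzethonium chloride controls. DSS is computed from the area under the fitted dose-response curve (5 or 9 concentrations).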
# [14] = tested on: MDA-MB-436; test: as above; conditions: incubation time: 72 h
# Experimental: as §2
# [15] = tested on: CAL-148; test: as above; conditions: incubation time: 72 h
# Experimental: as §2
# [16] = tested on: HCC1937; test: as above; conditions: incubation time: 72 h
# Experimental: as §2
# [17] = tested on: MFM-223; conditions: 72 h
# Outline: as §1
# [18] = tested on: HCC1143; conditions: 72 h
# Outline: as §1
# [19] = tested on: HCC1937; conditions: 72 h
# Outline: as §1
# [20] = tested on: HCC1599; conditions: 72 h
# Outline: as §1
# [21] = tested on: MDA-MB-453; conditions: 72 h
# Outline: as §1
# [22] = tested on: CAL-85-1; conditions: 72 h
# Outline: as §1
Compound,"EC50, CellTiter-Glo [1]","EC50, CellTiter-Glo [2]","EC50, CellTiter-Glo [3]","EC50, CellTiter-Glo [4]","EC50, CellTiter-Glo [5]","EC50, CellTiter-Glo [6]","EC50, CellTiter-Glo [7]","EC50, CellTiter-Glo [8]","EC50, CellTiter-Glo [9]","EC50, CellTiter-Glo [10]","EC50, CellTiter-Glo [11]","EC50, CellTiter-Glo [12]",drug sensitivity score [13],drug sensitivity score [14],drug sensitivity score [15],drug sensitivity score [16],"EC50, CellTiter-Glo [17]","EC50, CellTiter-Glo [18]","EC50, CellTiter-Glo [19]","EC50, CellTiter-Glo [20]","EC50, CellTiter-Glo [21]","EC50, CellTiter-Glo [22]"
CCn1c(-c2nonc2N)nc2cnc(Oc3cccc(NC(=O)c4ccc(OCCN5CCOCC5)cc4)c3)cc21,2170 nM,512 nM,1880 nM,37.8 nM,2050 nM,4640 nM,3670 nM,1500 nM,> 10000 nM,1240 nM,4290 nM,206 nM,–,–,–,–,–,–,–,–,–,–
Cc1cc(Nc2cc(CN3CCOCC3)c3nc(C)c(Cc4ccc(Cl)cc4F)n3n2)n[nH]1,–,–,–,–,–,–,–,–,–,–,–,–,0,7.24,0,6.84,–,–,–,–,–,–
N#Cc1ccc(COC[C@H]2O[C@@H](n3c(NCc4ccc(Cl)c(Cl)c4)nc4c(N)ncnc43)[C@H](O)[C@@H]2O)cc1,3550 nM,–,2580 nM,2640 nM,1740 nM,–,–,–,1170 nM,–,1520 nM,857 nM,8.13,4.85,0,3.59,4530 nM,2640 nM,> 10000 nM,–,–,–
COc1cc(O)c2c(c1)/C=C/C[C@H](O)[C@H](O)C(=O)/C=C\C[C@H](C)OC2=O [(5Z)-7-Oxozeaenol],2330 nM,2450 nM,6390 nM,532 nM,3250 nM,3770 nM,1560 nM,1430 nM,173 nM,1460 nM,548 nM,2160 nM,–,–,–,–,2170 nM,7820 nM,4060 nM,5830 nM,8350 nM,605 nM
COc1cc(OC2CCN(C)CC2)ccc1Nc1ncc2c(n1)n(C1CCCC1)c(=O)n2C [AZ 3146],–,–,970 nM,9260 nM,–,1010 nM,–,–,–,–,–,2620 nM,0,0,4.7,0,–,–,–,8240 nM,–,3780 nM
CN(C)c1nc(N(C)C)nc(N(C)C)n1 [Altretamine],–,–,–,–,–,–,–,–,–,–,–,–,1.24,0,0,0,–,–,–,–,–,–
COC(=O)c1ccc2c(c1)NC(=O)/C2=C(\Nc1ccc(N(C)C(=O)CN2CCN(C)CC2)cc1)c1ccccc1 [BIBF 1120],–,–,–,–,–,–,–,–,–,–,–,–,0,1.32,0,0,–,–,–,–,–,–
Nc1cc(C(F)(F)F)c(-c2cc(N3CCOCC3)nc(N3CCOCC3)n2)cn1 [BKM-120],–,–,–,–,–,–,–,–,–,–,–,–,8.97,4.25,8.55,6.85,–,–,–,–,–,–
Nc1cc(C(F)(F)F)c(-c2cc(N3CCOCC3)nc(N3CCOCC3)n2)cn1 [Buparlisib],1000 nM,8230 nM,–,513 nM,2330 nM,2400 nM,–,9280 nM,–,–,2360 nM,5150 nM,–,–,–,–,225 nM,> 10000 nM,6150 nM,–,–,–
O=P1(N(CCCl)CCCl)NCCCO1 (stereo unspecified) [Cyclophosphamide],–,–,–,–,–,–,–,–,–,–,–,–,0,0.105,0,0,–,–,–,–,–,–
CNC(=O)c1ccc(N2C(=S)N(c3ccc(C#N)c(C(F)(F)F)c3)C(=O)C2(C)C)cc1F [Enzalutamide],–,–,–,–,–,48.6 nM,–,–,–,–,–,–,–,–,–,–,–,–,–,–,> 10000 nM,–
C=C1C[C@@H]2[C@H](CC[C@]3(C)C(=O)CC[C@@H]23)[C@@]2(C)C=CC(=O)C=C12 [Exemestane],–,–,–,–,–,–,–,–,–,–,–,–,0,0,0,0,–,–,–,–,–,–
Cc1cc(Nc2cc(CN3CCOCC3)c3nc(C)c(Cc4ccc(Cl)cc4F)n3n2)n[nH]1 [Gandotinib],1930 nM,5010 nM,4030 nM,3140 nM,2660 nM,775 nM,1510 nM,1300 nM,7860 nM,–,2510 nM,1110 nM,–,–,–,–,420 nM,1620 nM,2530 nM,–,–,955 nM
COc1cc2ncnc(Nc3ccc(F)c(Cl)c3)c2cc1OCCCN1CCOCC1 [Gefitinib],–,–,–,84.2 nM,–,–,–,–,–,788 nM,–,–,2.82 and 3.43,0,2.15 and 4.81,0,–,–,> 10000 nM,–,–,714 nM
O=C(Nc1ccncc1)C(=O)c1cn(Cc2ccc(Cl)cc2)c2ccccc12 [Indibulin],523 nM,408 nM,355 nM,–,482 nM,165 nM,203 nM,1040 nM,3810 nM,–,185 nM,282 nM,0,8.9,2.12,25.9,280 nM,754 nM,245 nM,129 nM,164 nM,169 nM
NC(=O)c1ccc(I)c([N+](=O)[O-])c1 [Iniparib],–,–,–,–,–,–,540 nM,–,–,–,–,–,0,0,0,0,–,–,–,–,–,–
CCc1c2c(nc3ccc(OC(=O)N4CCC(N5CCCCC5)CC4)cc13)-c1cc3c(c(=O)n1C2)COC(=O)[C@]3(O)CC [Irinotecan],–,2590 nM,1180 nM,4290 nM,–,3290 nM,1160 nM,–,1840 nM,1450 nM,9390 nM,2550 nM,–,–,9.3 and 7.24,9.68 and 9.91,–,–,–,6850 nM,–,–
